Where two headings read alike, the source gives them in different places.
Assays:
Experiment in all cases: Kinase inhibitory activity profiling of RI-962@10 µM (406 kinases, Eurofins)
Format in all cases: biochemical
[1] = target: panel of human kinases (kinase named in endpoint) (Homo sapiens, UniProt Q9UL54); conditions: 10 µM; read-out: Activity (%), TAO2(h)
Summary of the method: (§1)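 Radiometric filter-binding kinase assays: enzyme preincubated 15 min with compound in 8 mM MOPS pH 7.0, 0.2 mM EDTA, 250 μM peptide substrate, 10 mM magnesium acetate, 10 μM [γ-33P]-ATP. Reaction started with Mg/ATP, run 40 min at room temperature, stopped with phosphoric acid; 33P incorporation read by scintillation counting. Other kinases by similar protocols.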

[2] = target: panel of human kinases (kinase named in endpoint) (Homo sapiens, UniProt P41743); conditions: 10 µM; read-out: Activity (%), PKCι(h)
Summary of the method: as §1

[3] = target: panel of human kinases (kinase named in endpoint) (Homo sapiens, UniProt Q92918); conditions: 10 µM; read-out: Activity (%), HPK1(h)
Summary of the method: as §1

[4] = target: panel of human kinases (kinase named in endpoint) (Homo sapiens, UniProt Q9P286); conditions: 10 µM; read-out: Activity (%), PAK5(h)
Summary of the method: as §1

[5] = target: panel of human kinases (kinase named in endpoint) (Homo sapiens, UniProt P29322); conditions: 10 µM; read-out: Activity (%), EphA8(h)
Summary of the method: as §1

[6] = target: panel of human kinases (kinase named in endpoint) (Homo sapiens, UniProt P11362); conditions: 10 µM; read-out: Activity (%), FGFR1(h)
Summary of the method: as §1

[7] = target: panel of human kinases (kinase named in endpoint) (Homo sapiens, UniProt Q13627); conditions: 10 µM; read-out: Activity (%), DYRK1A(h)
Summary of the method: as §1

[8] = target: panel of human kinases (kinase named in endpoint) (Homo sapiens, UniProt P05771); conditions: 10 µM; read-out: Activity (%), PKCβI(h)
Summary of the method: as §1

[9] = target: panel of human kinases (kinase named in endpoint) (Homo sapiens, UniProt Q96PY6); conditions: 10 µM; read-out: Activity (%), NEK1(h)
Summary of the method: as §1

[10] = target: panel of human kinases (kinase named in endpoint) (Homo sapiens, UniProt P09769); conditions: 10 µM; read-out: Activity (%), Fgr(h)
Summary of the method: as §1

[11] = target: panel of human kinases (kinase named in endpoint) (Homo sapiens, UniProt P07332); conditions: 10 µM; read-out: Activity (%), Fes(h)
Summary of the method: as §1

[12] = target: panel of human kinases (kinase named in endpoint) (Homo sapiens, UniProt P27448); conditions: 10 µM; read-out: Activity (%), MARK3(h)
Summary of the method: as §1

[13] = target: panel of human kinases (kinase named in endpoint) (Homo sapiens, UniProt Q6DT37); conditions: 10 µM; read-out: Activity (%), MRCKγ(h)
Summary of the method: as §1

[14] = target: panel of human kinases (kinase named in endpoint) (Homo sapiens, UniProt Q02763, Y897S); conditions: 10 µM; read-out: Activity (%), Tie2(Y897S)(h)
Summary of the method: as §1

[15] = target: panel of human kinases (kinase named in endpoint) (Homo sapiens, UniProt Q14012); conditions: 10 µM; read-out: Activity (%), CaMKI(h)
Summary of the method: as §1

[16] = target: panel of human kinases (kinase named in endpoint) (Homo sapiens, UniProt O14920); conditions: 10 µM; read-out: Activity (%), IKKβ(h)
Summary of the method: as §1

[17] = target: panel of human kinases (kinase named in endpoint) (Homo sapiens, UniProt Q5TCY1); conditions: 10 µM; read-out: Activity (%), TTBK1(h)
Summary of the method: as §1

[18] = target: panel of human kinases (kinase named in endpoint) (Homo sapiens, UniProt P53355); conditions: 10 µM; read-out: Activity (%), DAPK1(h)
Summary of the method: as §1

[19] = target: panel of human kinases (kinase named in endpoint) (Homo sapiens, UniProt O75582); conditions: 10 µM; read-out: Activity (%), MSK1(h)
Summary of the method: as §1

[20] = target: panel of human kinases (kinase named in endpoint) (Homo sapiens, UniProt Q9Y4K4); conditions: 10 µM; read-out: Activity (%), MAP4K5(h)
Summary of the method: as §1

[21] = target: panel of human kinases (kinase named in endpoint) (Homo sapiens, UniProt Q9UQ07); conditions: 10 µM; read-out: Activity (%), MOK(h)
Summary of the method: as §1

[22] = target: panel of human kinases (kinase named in endpoint) (Homo sapiens, UniProt O43781); conditions: 10 µM; read-out: Activity (%), DYRK3(h)
Summary of the method: as §1

[23] = target: panel of human kinases (kinase named in endpoint) (Homo sapiens, UniProt P08069); conditions: 10 µM
Summary of the method: as §1

[24] = target: panel of human kinases (kinase named in endpoint) (Homo sapiens, UniProt O00506); conditions: 10 µM; read-out: Activity (%), STK25(h)
Summary of the method: as §1

[25] = target: panel of human kinases (kinase named in endpoint) (Homo sapiens, UniProt Q13237); conditions: 10 µM; read-out: Activity (%), PRKG2(h)
Summary of the method: as §1

[26] = target: panel of human kinases (kinase named in endpoint) (Homo sapiens, UniProt Q13043); conditions: 10 µM; read-out: Activity (%), MST1(h)
Summary of the method: as §1

panel of human kinases (kinase named in endpoint) (Homo sapiens, UniProt P08069), sequence (P08069 31-1367): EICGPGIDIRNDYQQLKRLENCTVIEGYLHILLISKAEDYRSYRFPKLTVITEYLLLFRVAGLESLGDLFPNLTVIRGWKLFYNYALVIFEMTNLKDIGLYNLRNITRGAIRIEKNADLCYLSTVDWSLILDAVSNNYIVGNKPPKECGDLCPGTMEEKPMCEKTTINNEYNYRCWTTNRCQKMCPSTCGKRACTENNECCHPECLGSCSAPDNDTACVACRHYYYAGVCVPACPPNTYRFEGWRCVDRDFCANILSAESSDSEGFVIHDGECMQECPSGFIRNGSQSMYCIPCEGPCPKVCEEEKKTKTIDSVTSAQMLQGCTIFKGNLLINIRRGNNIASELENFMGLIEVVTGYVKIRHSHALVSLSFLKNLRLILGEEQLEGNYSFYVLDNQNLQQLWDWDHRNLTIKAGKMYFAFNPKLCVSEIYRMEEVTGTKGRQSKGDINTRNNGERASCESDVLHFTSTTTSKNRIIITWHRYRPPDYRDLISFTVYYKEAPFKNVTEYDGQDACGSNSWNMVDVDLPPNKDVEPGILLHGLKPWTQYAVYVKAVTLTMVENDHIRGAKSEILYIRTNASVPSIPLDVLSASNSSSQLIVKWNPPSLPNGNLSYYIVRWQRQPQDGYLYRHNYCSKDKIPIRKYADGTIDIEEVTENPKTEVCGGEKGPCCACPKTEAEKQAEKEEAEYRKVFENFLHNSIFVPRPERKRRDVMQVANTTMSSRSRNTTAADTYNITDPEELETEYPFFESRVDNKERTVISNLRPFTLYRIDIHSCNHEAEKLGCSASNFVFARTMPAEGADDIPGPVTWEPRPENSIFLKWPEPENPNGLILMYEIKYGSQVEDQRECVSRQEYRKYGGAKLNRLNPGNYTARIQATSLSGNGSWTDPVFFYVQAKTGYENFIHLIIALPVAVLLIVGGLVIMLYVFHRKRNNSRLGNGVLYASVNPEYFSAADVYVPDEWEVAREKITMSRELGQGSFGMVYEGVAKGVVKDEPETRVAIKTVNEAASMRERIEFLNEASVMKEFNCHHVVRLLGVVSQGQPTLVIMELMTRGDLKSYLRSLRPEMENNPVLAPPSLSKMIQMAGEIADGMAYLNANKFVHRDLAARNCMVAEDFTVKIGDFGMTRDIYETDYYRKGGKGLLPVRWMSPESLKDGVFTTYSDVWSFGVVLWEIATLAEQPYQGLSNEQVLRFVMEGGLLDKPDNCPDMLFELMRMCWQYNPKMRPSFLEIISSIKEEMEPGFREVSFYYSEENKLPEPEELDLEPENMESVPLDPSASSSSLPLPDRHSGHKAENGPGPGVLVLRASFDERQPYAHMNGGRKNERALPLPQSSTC
panel of human kinases (kinase named in endpoint) (Homo sapiens, UniProt P29322), sequence (P29322 28-1005): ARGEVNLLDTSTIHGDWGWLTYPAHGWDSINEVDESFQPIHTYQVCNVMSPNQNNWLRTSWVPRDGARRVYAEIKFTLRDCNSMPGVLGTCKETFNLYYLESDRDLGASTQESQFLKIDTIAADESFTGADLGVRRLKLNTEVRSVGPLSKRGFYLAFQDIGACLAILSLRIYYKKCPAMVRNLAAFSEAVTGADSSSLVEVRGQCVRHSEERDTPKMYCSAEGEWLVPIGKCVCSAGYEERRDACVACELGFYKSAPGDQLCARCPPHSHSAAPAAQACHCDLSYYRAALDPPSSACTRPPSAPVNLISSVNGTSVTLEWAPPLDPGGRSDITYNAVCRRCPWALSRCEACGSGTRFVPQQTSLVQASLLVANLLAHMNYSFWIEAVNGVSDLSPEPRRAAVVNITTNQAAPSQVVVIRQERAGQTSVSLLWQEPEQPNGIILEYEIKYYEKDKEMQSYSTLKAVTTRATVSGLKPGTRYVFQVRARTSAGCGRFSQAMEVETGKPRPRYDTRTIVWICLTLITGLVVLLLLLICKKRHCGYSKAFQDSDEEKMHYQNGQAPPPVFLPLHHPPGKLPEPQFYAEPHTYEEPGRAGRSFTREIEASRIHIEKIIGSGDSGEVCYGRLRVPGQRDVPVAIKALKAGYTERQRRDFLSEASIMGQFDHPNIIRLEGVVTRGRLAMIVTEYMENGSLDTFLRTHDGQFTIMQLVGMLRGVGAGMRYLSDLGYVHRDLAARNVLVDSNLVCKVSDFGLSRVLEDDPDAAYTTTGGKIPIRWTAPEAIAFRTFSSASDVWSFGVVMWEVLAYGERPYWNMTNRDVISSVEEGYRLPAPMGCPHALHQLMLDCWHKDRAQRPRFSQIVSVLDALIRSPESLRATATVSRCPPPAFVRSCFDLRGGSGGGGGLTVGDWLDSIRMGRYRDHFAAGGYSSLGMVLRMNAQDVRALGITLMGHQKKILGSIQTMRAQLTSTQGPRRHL
panel of human kinases (kinase named in endpoint) (Homo sapiens, UniProt O14920), sequence (O14920 whole entry): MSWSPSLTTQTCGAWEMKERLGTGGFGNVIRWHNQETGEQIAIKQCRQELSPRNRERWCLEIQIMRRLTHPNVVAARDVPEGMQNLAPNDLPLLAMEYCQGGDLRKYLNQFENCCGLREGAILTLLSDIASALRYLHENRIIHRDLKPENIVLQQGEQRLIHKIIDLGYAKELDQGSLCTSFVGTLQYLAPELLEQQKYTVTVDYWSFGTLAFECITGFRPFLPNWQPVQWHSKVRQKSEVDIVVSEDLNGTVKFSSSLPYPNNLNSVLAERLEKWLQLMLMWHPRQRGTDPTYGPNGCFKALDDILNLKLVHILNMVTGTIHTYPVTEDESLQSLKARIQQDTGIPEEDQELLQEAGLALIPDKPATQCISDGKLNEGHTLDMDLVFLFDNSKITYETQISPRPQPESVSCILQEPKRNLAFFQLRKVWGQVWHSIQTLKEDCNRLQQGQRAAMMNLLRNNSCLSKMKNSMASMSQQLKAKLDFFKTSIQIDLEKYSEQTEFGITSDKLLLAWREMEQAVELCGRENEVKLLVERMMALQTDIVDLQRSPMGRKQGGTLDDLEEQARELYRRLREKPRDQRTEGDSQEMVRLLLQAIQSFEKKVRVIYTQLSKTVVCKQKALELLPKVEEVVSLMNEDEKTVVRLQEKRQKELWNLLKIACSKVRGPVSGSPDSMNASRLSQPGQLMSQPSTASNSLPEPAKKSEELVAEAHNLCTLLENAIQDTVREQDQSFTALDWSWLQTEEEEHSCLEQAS
panel of human kinases (kinase named in endpoint) (Homo sapiens, UniProt Q96PY6), sequence (Q96PY6 whole entry): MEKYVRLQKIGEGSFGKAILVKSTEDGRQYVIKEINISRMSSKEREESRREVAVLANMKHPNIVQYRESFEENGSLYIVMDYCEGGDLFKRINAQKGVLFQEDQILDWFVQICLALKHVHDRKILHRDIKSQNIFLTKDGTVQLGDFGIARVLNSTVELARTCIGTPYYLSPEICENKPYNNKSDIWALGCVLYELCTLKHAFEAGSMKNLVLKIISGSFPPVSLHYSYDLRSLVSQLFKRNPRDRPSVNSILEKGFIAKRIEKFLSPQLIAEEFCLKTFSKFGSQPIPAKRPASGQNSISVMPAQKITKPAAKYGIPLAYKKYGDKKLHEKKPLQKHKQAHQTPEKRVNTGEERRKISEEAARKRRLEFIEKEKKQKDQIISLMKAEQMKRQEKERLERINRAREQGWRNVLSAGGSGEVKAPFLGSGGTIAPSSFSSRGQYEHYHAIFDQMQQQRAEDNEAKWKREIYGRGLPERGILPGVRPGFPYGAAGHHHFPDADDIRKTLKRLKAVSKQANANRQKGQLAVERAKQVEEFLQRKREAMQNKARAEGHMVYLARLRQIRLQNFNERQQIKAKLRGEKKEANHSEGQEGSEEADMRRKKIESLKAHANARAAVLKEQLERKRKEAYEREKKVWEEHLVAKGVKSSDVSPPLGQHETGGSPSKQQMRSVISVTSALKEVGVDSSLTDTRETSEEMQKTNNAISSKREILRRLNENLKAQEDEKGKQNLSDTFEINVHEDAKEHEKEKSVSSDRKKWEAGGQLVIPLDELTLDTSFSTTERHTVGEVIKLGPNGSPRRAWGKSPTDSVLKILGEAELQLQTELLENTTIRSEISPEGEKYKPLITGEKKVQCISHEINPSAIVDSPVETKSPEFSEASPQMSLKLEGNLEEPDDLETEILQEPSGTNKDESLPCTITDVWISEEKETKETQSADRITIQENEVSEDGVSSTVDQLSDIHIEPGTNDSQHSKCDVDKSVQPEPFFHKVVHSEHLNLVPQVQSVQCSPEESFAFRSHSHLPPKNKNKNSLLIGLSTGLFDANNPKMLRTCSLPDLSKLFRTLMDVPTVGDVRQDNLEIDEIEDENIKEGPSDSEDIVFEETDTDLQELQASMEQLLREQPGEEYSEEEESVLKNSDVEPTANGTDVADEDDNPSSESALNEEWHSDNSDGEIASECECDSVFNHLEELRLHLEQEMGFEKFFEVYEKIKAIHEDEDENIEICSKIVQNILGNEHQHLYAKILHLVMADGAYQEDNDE
panel of human kinases (kinase named in endpoint) (Homo sapiens, UniProt Q13043), sequence (Q13043 whole entry): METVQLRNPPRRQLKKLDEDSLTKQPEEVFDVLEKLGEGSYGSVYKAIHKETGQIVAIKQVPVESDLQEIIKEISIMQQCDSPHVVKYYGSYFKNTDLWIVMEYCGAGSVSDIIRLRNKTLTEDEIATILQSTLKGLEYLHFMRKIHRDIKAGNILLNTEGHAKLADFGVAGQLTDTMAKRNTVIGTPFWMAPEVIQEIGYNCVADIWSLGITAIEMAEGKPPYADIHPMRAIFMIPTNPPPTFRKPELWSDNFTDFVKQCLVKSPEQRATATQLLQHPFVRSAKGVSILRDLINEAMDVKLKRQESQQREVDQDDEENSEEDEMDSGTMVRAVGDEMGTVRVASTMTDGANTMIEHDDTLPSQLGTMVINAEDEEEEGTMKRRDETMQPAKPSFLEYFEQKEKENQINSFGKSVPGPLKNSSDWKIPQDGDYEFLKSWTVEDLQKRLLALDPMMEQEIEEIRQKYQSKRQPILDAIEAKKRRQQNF

CC(C)C(=O)Nc1nc2cc(-c3ccc4c(c3)c(C(=O)NC(C)c3ccccc3)cn4C)ccn2n1 (stereo not drawn) [RI-962]
activity at 10 µM [1]: 92% | activity at 10 µM [2]: 97% | activity at 10 µM [3]: 92% | activity at 10 µM [4]: 93% | activity at 10 µM [5]: 88% | activity at 10 µM [6]: 81% | activity at 10 µM [7]: 96% | activity at 10 µM [8]: 120% | activity at 10 µM [9]: 93% | activity at 10 µM [10]: 96% | activity at 10 µM [11]: 99% | activity at 10 µM [12]: 84% | activity at 10 µM [13]: 83% | activity at 10 µM [14]: 69% | activity at 10 µM [15]: 92% | activity at 10 µM [16]: 88% | activity at 10 µM [17]: 92% | activity at 10 µM [18]: 95% | activity at 10 µM [19]: 112% | activity at 10 µM [20]: 100% | activity at 10 µM [21]: 88% | activity at 10 µM [22]: 83% | activity at 10 µM ([23]; read-out: Activity (%), IGF-1R(h)): 94% | activity at 10 µM ([23]; read-out: Activity (%), IGF-1R(h), activated): 92% | activity at 10 µM [24]: 81% | activity at 10 µM [25]: 105% | activity at 10 µM [26]: 95%

Source: paper PMC9653409, “Generative deep learning enables the discovery of a potent and selective RIPK1 inhibitor” (Nature Communications, 2022)
